Measurements from patent US7879566B2, “Methods for the identification of modulators of OSGPR114 or OSGPR78 activity, and their use in the treatment of disease” (OSI Pharmaceuticals, Inc., priority 2003, dated 2011).

Legend:
[1] = test system: HCT-8 cells; assay: LPA effect on cell proliferation (Cell TiterGlo); assay type: cell-based, human
Experimental: The effect of LPA on cell proliferation (Cell TiterGlo assay, Promega) and induction of apoptosis (Apo-One Caspase 3/7 assay, Promega) was measured in the presence and absence of serum. Cell-titer Glo is an assay that quantitates ATP as a measurement of the number of viable cells in a culture. The assay utilizes a luciferase-based luminescent signal. The Apo-One assay utilizes a profluorescent caspase 3/7 consensus substrate to measure the activation of caspase in the sample. The experiments were conducted in serum-free media as it is known that serum contains high concentrations of LPA (of the order of 10-30 uM). Briefly, cells were plated in 96-well plates at a density of 20,000 cells/well. After 24 h the serum-containing media was removed from the cells and replaced with either serum-containing or serum-free media. After 24 h LPA, at concentrations from 1-100 μM was added to the cells. 24 h later the induction of apoptosis and the level of cellular proliferation was measured using the Cell titer-glo or Caspase 3/7 Apo-One assay kits commercially available from Promega.

[2] = target: T1, OSGPR78 (Homo sapiens, UniProt P43657, I33V); assay: Yeast Fus1p-LacZ β-galactosidase reporter assay, OSGPR78-transformed yeast; assay type: cell-based; conditions: Galpha i and Galpha 12/13 family chimeras (13393, 15074, 13395)
T1 construct: expressed in transfected cells; host or cells: engineered yeast (GPA1 replaced by G-alpha chimeras, STE3 deleted; Fus1p-LacZ reporters)
T1 sequence (P43657 1-344 I33V): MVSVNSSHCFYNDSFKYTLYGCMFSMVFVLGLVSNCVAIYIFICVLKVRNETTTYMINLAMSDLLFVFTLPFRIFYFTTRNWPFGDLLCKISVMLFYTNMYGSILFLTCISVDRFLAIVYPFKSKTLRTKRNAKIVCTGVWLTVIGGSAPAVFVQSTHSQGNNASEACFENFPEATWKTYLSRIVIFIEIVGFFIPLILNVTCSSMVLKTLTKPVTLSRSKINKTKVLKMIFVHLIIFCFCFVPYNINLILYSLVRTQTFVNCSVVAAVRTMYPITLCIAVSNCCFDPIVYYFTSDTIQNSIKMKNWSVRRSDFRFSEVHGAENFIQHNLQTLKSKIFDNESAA
Text: The yeast cell-based reporter assays have previously been described in the literature (e.g. see Miret J. J., et. al. (2002) J. Biol. Chem. 277:6881-6887; Campbell R. M., et. al. (1999) Bioorg Med. Chem. Lett. 9:2413-2418; King K., et. al. (1990) Science. 250:121-123); WO 99/14344; WO 00/12704; and U.S. Pat. No. 6,100,042). Briefly, yeast cells have been engineered such that the endogenous yeast G-alpha (GPA1) has been deleted and replaced with G-protein chimeras constructed using multiple techniques. Additionally the endogenous yeast alpha-cell GPCR, STE3 has been deleted to allow for a […] expression of a mammalian GPCR of choice. In the yeast, elements of the pheromone signaling transduction pathway, which are conserved in eukaryotic cells (for example, the mitogen-activated protein kinase pathway), drive the expression of Fus1. By placing β-galactosidase (LacZ) under the control of the Fus1 promoter (Fus1p), a system has been developed whereby receptor activation leads to an enzymatic read-out. Different yeast strains (e.g. FIG. 6) denote the presence of different G-alpha chimeras (see “yeast reporter assays” in Results section below for definitions).
Yeast cells are transformed by an adaptation of the Lithium acetate method described by Agatep et.al. (Agatep, R., et. al. (1998) Transformation of Saccharomyces cerevisiae by the lithium acetate/single-stranded carrier DNA/polyethylene glycol (LiAc/ss-DNA/PEG) protocol. Technical Tips Online, Trends Journals, Elsevier). Briefly, yeast cells are grown overnight on yeast tryptone plates (YT). Carrier single-stranded DNA (10 μg), 2 μg of each of two Fus1p-LacZ reporter plasmids (one with URA3 selection marker and one with TRP1), 2 μg of OSGPR114 or OSGPR78 in yeast expression vector (2p origin of replication) and a lithium acetate/polyethylene glycol/TE buffer is pipetted into an Epindorf tube. The yeast expression plasmid containing the receptor/no receptor control has a LEU2 marker. Yeast cells are inoculated into this mixture and the reaction proceeds at 30° C. for 60 minutes. The yeast cells are then heat-shocked at 42° C. for 15 minutes. The cells are then washed and spread on selection plates. The selection plates are synthetic defined yeast media minus LEU, URA and TRP (SD-LUT). After incubating at 30° C. for 2-3 days, colonies that grow on the selection plates are then tested in the LacZ assay.
In order to perform fluorometric enzyme assays for β-galactosidase, yeast cells were grown overnight in liquid SD-LUT media to an unsaturated concentration (i.e. the cells are still dividing and have not yet reached stationary phase). They are diluted in fresh media to an optimal assay concentration and 90 μL of yeast cells were added to 96-well black polystyrene plates (Costar). Compounds, dissolved in ethanol and diluted in a 1% BSA solution to 10× concentration, were added to the plates and the yeast are placed at 30° C. for 4 h. After 4 h, the substrate for the β-galactosidase is added to each well: The substrate may yield a fluorescent or calorimetric read-out upon the activity of the β-galactosidase. In these experiments, Fluorescein di(β-D-galactopyranoside) was used (FDG), a substrate for the enzyme that releases fluorescein, allowing a fluorometric read-out. 20 μL of 500 μM FDG was used. After incubation of the cells with the substrate for 30-60 mins, 20 μL of 1 M sodium carbonate is added to terminate the reaction and enhance the fluorescent signal. The plates were then read in a fluorometer at 485/535 nm. As an alternate read-out system, the yeast are also engineered with a Fus1p-HIS gene which means that activation of the receptor can also be measured through the growth of the yeast in a […] media.

[3] = test system: CHO cells; assay: FLIPR intracellular calcium assay, CHO cells; assay type: cell-based, hamster
Experimental: For example, in one method employed herein, CHO and CHO-114 cells were seeded at a concentration of 50K cells/well in […] growth media in clear, flat-bottom 96-well black assay plates and incubated overnight at 37 C. The growth media is aspirated from the cells and a dye solution ([…]) added to each well. The dye solution consists of 2 mM probenecid, 2 mM HBSS, […] in a growth media minus antibiotics solution. The cells are loaded with the dye for 1 h at 37 C before aspiration and rinsing with wash buffer (20 mM HBSS+2 mM Probenecid). Compound plates are then prepared with 4× compound/control. 150 ul of wash buffer is added to each well. Once the FLIPR is fully calibrated, compound is added to the plate and the release of calcium measured using 0.4 exposure length and a laser set at 0.3W.

With lysophosphatidic acid [LPA] the “cell growth / proliferation” value ([1]; presence of 10% FCS) was “no statistically significant effects”, the “cell growth / proliferation” value ([1]; serum free conditions, LPA 1-100 μM, 24 h) was “induced growth of the cells in a concentration dependent manner” and the “response in yeast G-alpha chimera strains” value [2] was “optimal for LPA response”. The “change in intracellular calcium concentration” value [3] was “no significant change”.
